Values after ≈ are worked out from the molar mass of the structure shown. Read-outs that look alike come from different tables or passages of the source.
Experiments:
[1] = tested on: K. pneumoniae; assay: MIC, antibiotic dilution technique (agar); type: cell-based; details: Klebsiella pneumoniae
Source text: (§1) Bacteria. The organisms, preponderantly of recent clinical origin, were obtained from numerous sources of broad geographical distribution. Obligate anaerobes were maintained in Egg Meat Medium (Difco); Mycobacterium was stored on Lowenstein Medium (Jensen Modification; Difco). The techniques of storing all other organisms have been described previously [Leitner et al., BL-S640, A Cephalosporin with a Broad Spectrum of Antibacterial Activity: Properties in vitro, Antimicrob. Agents Chemother., 7, 298-305 (1975)].
(§2) Antibiotic spectrum. The growth-inhibitory activity of the compounds was determined by the antibiotic dilution technique. Procedures were as follows:
(§3) Aerobic organisms (excluding Mycobacterium). Except for Haemophilus and Neisseria, the assay was performed in Mueller-Hinton Medium (Difco). For fastidious organisms, i.e., Streptococcus, Listeria, Pasteurella, Bordetella and Vibrio, the medium was supplemented with 4% defibrinated sheep blood. The antibiotic susceptibility of Haemophilus and Neisseria was determined in GC Medium Base (BBL) supplemented with 1% Hemoglobin (BBL) and 1% Isovitalex (BBL).
(§4) Overnight broth cultures of an exponentially growing culture (Neisseria) served as the source of inoculum. A volume of approximately 0.003 ml. of the undiluted or diluted culture was applied to the surface of the antibiotic-containing agar plates with the inoculator of Steers et al., An Inocula Replicating Apparatus for Routine Testing of Bacterial Susceptibility to Antibiotics, Antibiot. Chemother., 9, 307-311, (1959). Cultures of Neisseria, Streptococcus pneumoniae, S. viridans and S. pyogenes were used without dilution; those of all other organisms were diluted 100-fold. The inoculum contained about 10^3 viable cells for Neisseria, 10^5 for S. pneumoniae and S. pyogenes, 10^6 for S. viridans and 10^4 for all other species.

[2] = tested on: Pr. rettgeri; assay: MIC, antibiotic dilution technique (agar); type: cell-based; details: Providencia rettgeri
Source text: as §1, §2, §3, §4

[3] = tested on: S. aureus Meth-Res.; assay: MIC, antibiotic dilution technique (agar); type: cell-based; details: Staphylococcus aureus
Source text: as §1, §2, §3, §4

[4] = tested on: S. aureus; assay: MIC, antibiotic dilution technique (agar); type: cell-based; details: Staphylococcus aureus
Source text: as §1, §2, §3, §4

[5] = tested on: Str. faecalis; assay: MIC, antibiotic dilution technique (agar); type: cell-based; details: Enterococcus faecalis
Source text: as §1, §2, §3, §4

[6] = tested on: E. Coli; assay: MIC, antibiotic dilution technique (agar); type: cell-based; details: Escherichia coli
Source text: as §1, §2, §3, §4

[7] = tested on: S. aureus Pen-Res.; assay: MIC, antibiotic dilution technique (agar); type: cell-based; details: Staphylococcus aureus
Source text: as §1, §2, §3, §4

[8] = tested on: Pr. vulgaris; assay: MIC, antibiotic dilution technique (agar); type: cell-based; details: Proteus vulgaris
Source text: as §1, §2, §3, §4

[9] = tested on: Str. pneumoniae; assay: MIC, antibiotic dilution technique (agar); type: cell-based; details: Streptococcus pneumoniae
Source text: as §1, §2, §3, §4

[10] = tested on: Ser. marcescens; assay: MIC, antibiotic dilution technique (agar); type: cell-based; details: Serratia marcescens
Source text: as §1, §2, §3, §4

[11] = tested on: Ps. aeruginosa; assay: MIC, antibiotic dilution technique (agar); type: cell-based; details: Pseudomonas aeruginosa
Source text: as §1, §2, §3, §4

[12] = tested on: Ent. cloacae; assay: MIC, antibiotic dilution technique (agar); type: cell-based; details: Enterobacter cloacae
Source text: as §1, §2, §3, §4

[13] = tested on: Pr. mirabilis; assay: MIC, antibiotic dilution technique (agar); type: cell-based; details: Proteus mirabilis
Source text: as §1, §2, §3, §4

[14] = tested on: Pr. morganii; assay: MIC, antibiotic dilution technique (agar); type: cell-based; details: Morganella morganii
Source text: as §1, §2, §3, §4

[15] = tested on: K. pneumoniae; assay: MIC, antibiotic dilution technique (agar), Table 4; type: cell-based; details: Klebsiella pneumoniae, Table 4, K. pneumoniae, read-out: MIC
Source text: as §1, §2, §3, §4

[16] = tested on: S. marcescens; assay: MIC, antibiotic dilution technique (agar), Table 4; type: cell-based
Source text: as §1, §2, §3, §4

[17] = tested on: S. pneumoniae; assay: MIC, antibiotic dilution technique (agar), Table 4; type: cell-based; details: Streptococcus pneumoniae; Table 4, 7 strains, geometric mean where applicable
Source text: as §1, §2, §3, §4

[18] = tested on: E. Coli; assay: MIC, antibiotic dilution technique (agar), Table 4; type: cell-based; details: Escherichia coli
Source text: as §1, §2, §3, §4

[19] = tested on: p. vulgaris; assay: MIC, antibiotic dilution technique (agar), Table 4; type: cell-based; details: Proteus vulgaris; Table 4, 2 strains, geometric mean where applicable
Source text: as §1, §2, §3, §4

[20] = tested on: E. cloacae; assay: MIC, antibiotic dilution technique (agar), Table 4; type: cell-based; details: Enterobacter cloacae; Table 4, 2 strains, geometric mean where applicable
Source text: as §1, §2, §3, §4

[21] = tested on: S. viridans; assay: MIC, antibiotic dilution technique (agar), Table 4; type: cell-based; details: Streptococcus viridans
Source text: as §1, §2, §3, §4

[22] = tested on: S. pyogenes; assay: MIC, antibiotic dilution technique (agar), Table 4; type: cell-based; details: Streptococcus pyogenes; Table 4, 6 strains, geometric mean where applicable
Source text: as §1, §2, §3, §4

[23] = tested on: P. rettgeri; assay: MIC, antibiotic dilution technique (agar), Table 4; type: cell-based; details: Providencia rettgeri
Source text: as §1, §2, §3, §4

[24] = tested on: S. aureus (lacking penase); assay: MIC, antibiotic dilution technique (agar), Table 4; type: cell-based; details: Staphylococcus aureus; Table 4, 6 strains, geometric mean where applicable
Source text: as §1, §2, §3, §4

[25] = tested on: S. faecalis; assay: MIC, antibiotic dilution technique (agar), Table 4; type: cell-based; details: Enterococcus faecalis; Table 4, 6 strains, geometric mean where applicable
Source text: as §1, §2, §3, §4

[26] = tested on: P. mirabilis; assay: MIC, antibiotic dilution technique (agar), Table 4; type: cell-based; details: Proteus mirabilis, Table 4, P. mirabilis, geometric mean where applicable, read-out: MIC
Source text: as §1, §2, §3, §4

[27] = tested on: Streptococcus sp. (β-hemolytic); assay: MIC, antibiotic dilution technique (agar), Table 4; type: cell-based; details: Table 4, 6 strains, geometric mean where applicable
Source text: as §1, §2, §3, §4

[28] = tested on: Str. pyogenes; assay: MIC, antibiotic dilution technique (agar); type: cell-based, S. pyogenes; details: Streptococcus pyogenes
Source text: as §1, §2, §3, §4

[29] = Mouse blood levels after oral administration (disc diffusion bioassay, Bacillus subtilis); details: in vivo, 100 mg/kg

COCCOCOC(=O)[C@@H]1N2C(=O)[C@@H](N3C(=O)[C@@H](c4ccccc4)NC3(C)C)[C@H]2SC1(C)C [RN-1492, Methoxyethoxymethyl Ester of Hetacillin]
MIC ([1]; Table 1, K. pneumoniae, first line, read-out: MIC): 63 mg/L (≈ 132 µM) | MIC ([1]; Table 1, K. pneumoniae, second line, read-out: MIC): 32 mg/L (≈ 67 µM) | MIC ([2]; Table 1, Pr. rettgeri): 16 mg/L (≈ 33.5 µM) | MIC ([3]; Table 1, S. aureus Meth-Res.): 63 mg/L (≈ 132 µM) | MIC ([4]; Table 1, S. aureus): 0.06 mg/L (≈ 0.126 µM) | MIC ([4]; Table 1, S. aureus + 50% serum): 0.13 mg/L | MIC ([5]; Table 1, Str. faecalis): 0.5 mg/L (≈ 1.05 µM) | MIC ([6]; Table 1, E. Coli, first line): 2 mg/L (≈ 4.19 µM) | MIC ([6]; Table 1, E. Coli, second line): 63 mg/L (≈ 132 µM) | MIC ([7]; Table 1, S. aureus Pen-Res., read-out: MIC): > 125 mg/L | MIC ([8]; Table 1, Pr. vulgaris): 0.25 mg/L (≈ 0.523 µM) | MIC ([9]; Table 1, Str. pneumoniae): 0.004 mg/L (≈ 0.00838 µM) | MIC ([10]; Table 1, Ser. marcescens): 32 mg/L (≈ 67 µM) | MIC ([11]; Table 1, Ps. aeruginosa, first line, read-out: MIC): 63 mg/L (≈ 132 µM) | MIC ([11]; Table 1, Ps. aeruginosa, second line, read-out: MIC): 125 mg/L (≈ 262 µM) | MIC ([12]; Table 1, Ent. cloacae, first line, read-out: MIC): 63 mg/L (≈ 132 µM) | MIC ([12]; Table 1, Ent. cloacae, second line, read-out: MIC): 63 mg/L (≈ 132 µM) | MIC ([13]; Table 1, Pr. mirabilis): 0.25 mg/L (≈ 0.523 µM) | MIC ([14]; Table 1, Pr. morganni, read-out: MIC): 32 mg/L (≈ 67 µM) | MIC ([15]; 1 strain (first line)): 63 mg/L (≈ 132 µM) | MIC ([15]; 1 strain (second line)): > 125 mg/L | MIC ([16]; 1 strain (second line)): > 125 mg/L | MIC ([16]; Serratia marcescens, 1 strain (first line), read-out: MIC): > 125 mg/L | MIC [17]: 0.032 mg/L (≈ 0.067 µM) | MIC ([18]; 1 strain (first line)): 2 mg/L (≈ 4.19 µM) | MIC ([18]; 1 strain (fourth line)): > 125 mg/L | MIC ([18]; 1 strain (third line)): 63 mg/L (≈ 132 µM) | MIC ([18]; 3 strains (second line), geometric mean where applicable): 5 mg/L (≈ 10.5 µM) | MIC [19]: 0.5 mg/L (≈ 1.05 µM) | MIC [20]: > 125 mg/L | MIC ([21]; Table 4, S. viridans, 1 strain (second line)): 0.25 mg/L (≈ 0.523 µM) | MIC ([21]; Table 4, S. viridans, 3 strains, geometric mean where applicable): 0.05 mg/L (≈ 0.105 µM) | MIC ([21]; Table 4, s. viridans, 1 strain (third line)): 0.5 mg/L (≈ 1.05 µM) | MIC [22]: 0.027 mg/L (≈ 0.0565 µM) | MIC ([23]; Table 4, P. retgeri, 2 strains (third line), geometric mean where applicable): 63 mg/L (≈ 132 µM) | MIC ([23]; Table 4, P. rettgeri, 1 strain (first line)): 0.25 mg/L (≈ 0.523 µM) | MIC ([23]; Table 4, P. rettgeri, 1 strain (second line)): 16 mg/L (≈ 33.5 µM) | MIC [24]: 0.18 mg/L (≈ 0.377 µM) | MIC [25]: 2 mg/L (≈ 4.19 µM) | MIC ([26]; 2 strains): > 125 mg/L | MIC ([26]; 4 strains): 4 mg/L (≈ 8.38 µM) | MIC [27]: 0.13 mg/L (≈ 0.272 µM) | MIC ([28]; Table 1, Str. pyogenes): 0.008 mg/L (≈ 0.0168 µM)

CC1(C)S[C@@H]2[C@H](NC(=O)[C@H](N)c3ccc(O)cc3)C(=O)N2[C@H]1C(=O)O [Amoxicillin, amoxicillin]
concentration at 0.25 h [29]: 9.5 µg/mL | concentration at 0.5 h [29]: 16.9 µg/mL | concentration at 1 h [29]: 14.2 µg/mL | concentration at 1.5 h [29]: 8.7 µg/mL | concentration at 2 h [29]: 6.3 µg/mL | concentration at 3 h [29]: 3.1 µg/mL | MIC ([1]; Table 2, K. pneumoniae, first line): 125 mg/L (≈ 342 µM) | MIC ([1]; Table 2, K. pneumoniae, second line): > 125 mg/L | MIC ([2]; Table 2, Pr. rettgeri): 16 mg/L (≈ 43.8 µM) | MIC ([3]; Table 2, S. aureus Meth-Res.): 32 mg/L (≈ 87.6 µM) | MIC ([4]; Table 2, S. aureus): 0.03 mg/L (≈ 0.0821 µM) | MIC ([4]; Table 2, S. aureus + 50% serum): 0.06 mg/L | MIC ([5]; Table 2, Str. faecalis): 0.06 mg/L (≈ 0.164 µM) | MIC ([6]; Table 2, E. coli, first line): 0.5 mg/L (≈ 1.37 µM) | MIC ([6]; Table 2, E. coli, second line): > 125 mg/L | MIC [7]: > 125 mg/L | MIC ([8]; Table 2, Pr. vulgaris): 0.06 mg/L (≈ 0.164 µM) | MIC ([9]; Table 2, Str. pneumoniae): 0.004 mg/L (≈ 0.0109 µM) | MIC ([10]; Table 2, Ser. marcescens): 32 mg/L (≈ 87.6 µM) | MIC ([11]; Table 2, Ps. aeruginosa, first line): 125 mg/L (≈ 342 µM) | MIC ([11]; Table 2, Ps. aeruginosa, second line): > 125 mg/L | MIC [12]: 125 mg/L (≈ 342 µM) | MIC ([12]; Table 2, Ent. cloacae, first line, read-out: MIC): 63 mg/L (≈ 172 µM) | MIC ([13]; Table 2, Pr. mirabilis): 0.06 mg/L (≈ 0.164 µM) | MIC [14]: 125 mg/L (≈ 342 µM) | MIC ([28]; Table 2, Str. pyogenes): 0.004 mg/L (≈ 0.0109 µM)
